Residue numbers refer to the chain shown, from its start.
Assays:
mTAAR9 W7.40A = target: T1, mTAAR9 W7.40A (Mus musculus, UniProt Q5QD04, W298A); experiment: CRE-luciferase reporter assay, mTAAR9 mutant in Hana3A; format: cell-based; conditions: read-out: EC50 (mean ± S.D., n = 3)
T1 construct: expressed in transfected cells; host or cells: Hana3A (HEK293-derived)
T1 sequence (Q5QD04 1-348 W298A): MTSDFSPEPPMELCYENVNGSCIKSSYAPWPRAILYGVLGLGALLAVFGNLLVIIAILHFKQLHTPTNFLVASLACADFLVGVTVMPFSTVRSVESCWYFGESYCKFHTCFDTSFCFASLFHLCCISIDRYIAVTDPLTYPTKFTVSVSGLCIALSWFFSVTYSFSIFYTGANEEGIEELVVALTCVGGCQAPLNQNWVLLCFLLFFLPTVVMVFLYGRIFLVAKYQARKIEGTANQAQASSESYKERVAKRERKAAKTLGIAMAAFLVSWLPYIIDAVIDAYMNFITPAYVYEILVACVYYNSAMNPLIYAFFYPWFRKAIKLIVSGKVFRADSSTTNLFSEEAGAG

mTAAR9 W7.40Y = target: T2, mTAAR9 W7.40Y (Mus musculus, UniProt Q5QD04, W298Y); experiment: as above; format: cell-based; conditions: read-out: EC50 (mean ± S.D., n = 3)
T2 construct: expressed in transfected cells; host or cells: Hana3A (HEK293-derived)

Rat TAAR9 = target: T3, Rat TAAR9 (Rattus norvegicus, UniProt Q923Y6); experiment: CRE-luciferase reporter assay in Hana3A; format: cell-based; conditions: rat TAAR9, ligand 1 mM, Fig. 1B
T3 construct: expressed in transfected cells; host or cells: Hana3A (HEK293-derived)
T3 sequence (Q923Y6 1-338): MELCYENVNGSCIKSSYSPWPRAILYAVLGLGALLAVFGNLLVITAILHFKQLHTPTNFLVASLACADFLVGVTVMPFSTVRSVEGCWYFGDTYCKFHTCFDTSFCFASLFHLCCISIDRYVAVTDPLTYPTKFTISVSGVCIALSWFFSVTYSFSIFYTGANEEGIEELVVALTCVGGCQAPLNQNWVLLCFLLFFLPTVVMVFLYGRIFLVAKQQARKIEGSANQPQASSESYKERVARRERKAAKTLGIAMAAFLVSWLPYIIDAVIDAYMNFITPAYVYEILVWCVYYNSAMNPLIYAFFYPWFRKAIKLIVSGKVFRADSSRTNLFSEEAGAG
Procedure: We examined the response of TAAR9s from rat, human, hamster, and rabbit to the stimulation of 1 mM amines using a well-established cAMP response element (CRE)-driven luciferase reporter assay based on Golf-mediated cAMP signal transduction ([5], [24]). In addition to the four mTAAR9 ligands, we included putrescine, which is also a polyamine and precursor of spermine/spermidine biosynthesis.
(§1) Mammalian TAAR9 plasmids were transfected into Hana3A cells along with a cAMP-dependent luciferase reporter plasmid (CRE-Luc). Transfected cells were incubated with tested ligands, and luciferase activity was quantified with a […] substrate as a reporter for Golf-mediated TAAR activation. Luciferase activity was indicated by the luminescence value and normalized as a fold-increase over the response to the vehicle stimuli (mean ± S.D., n = 3). […] B, Hana3A cells expressing mouse, rat, human, cat, hamster, and rabbit TAAR9 were incubated with either vehicle or tested ligands (1 mM) and assayed for reporter activity. C, concentration-dependent luciferase activity in Hana3A cells expressing mouse, rat, and cat TAAR9 receptors stimulated with cadaverine, spermidine, and spermine.
(§2) The firefly luciferase and renilla luciferase activity was measured with a BioTek microplate reader following manufacturer’s instructions.

mTAAR9 Y6.51W = target: T4, mTAAR9 Y6.51W (Mus musculus, UniProt Q5QD04, Y274W); experiment: CRE-luciferase reporter assay, mTAAR9 mutant in Hana3A; format: cell-based; conditions: read-out: EC50 (mean ± S.D., n = 3)
T4 construct: expressed in transfected cells; host or cells: Hana3A (HEK293-derived)
T4 sequence (Q5QD04 1-348 Y274W): T1 sequence (Q5QD04 1-348 W298A) with Y274W, A298W

WT mTAAR9 = target: T5, WT mTAAR9 (Mus musculus, UniProt Q5QD04); experiment: CRE-luciferase reporter assay, wild-type mTAAR9 in Hana3A; format: cell-based; conditions: WT mTAAR9, Hana3A, CRE-luciferase; read-out: EC50 (mean ± S.D., n = 3)
T5 construct: Rho-tag (first 20 amino acids of bovine rhodopsin) (N); expressed in transfected cells; host or cells: Hana3A (HEK293-derived)
T5 sequence (Q5QD04 1-348): T1 sequence (Q5QD04 1-348 W298A) with A298W
Procedure: as §1, §2

mTAAR8c = target: T6, mTAAR8c (Mus musculus, UniProt Q5QD05); experiment: CRE-luciferase reporter assay in Hana3A, mouse olfactory TAARs; format: cell-based; conditions: ligand 500 μM, Fig. 1D
T6 construct: expressed in transfected cells; host or cells: Hana3A (HEK293-derived)
Procedure: as §1
(§3) We then sought to determine if other mouse olfactory TAARs are activated by the mTAAR9 ligands.
as §2

mTAAR9 E7.36D = target: T7, mTAAR9 E7.36D (Mus musculus, UniProt Q5QD04, E294D); experiment: CRE-luciferase reporter assay, mTAAR9 mutant in Hana3A; format: cell-based; conditions: read-out: EC50 (mean ± S.D., n = 3)
T7 construct: expressed in transfected cells; host or cells: Hana3A (HEK293-derived)
T7 sequence (Q5QD04 1-348 E294D): T1 sequence (Q5QD04 1-348 W298A) with E294D, A298W

mTAAR9 W7.40F = target: T8, mTAAR9 W7.40F (Mus musculus, UniProt Q5QD04, W298F); experiment: as above; format: cell-based; conditions: read-out: EC50 (mean ± S.D., n = 3)
T8 construct: expressed in transfected cells; host or cells: Hana3A (HEK293-derived)
T8 sequence (Q5QD04 1-348 W298F): T1 sequence (Q5QD04 1-348 W298A) with A298F

mTAAR7f = mTAAR7f (Mus musculus, UniProt Q5QD08); conditions: ligand 500 μM, Fig. 1D
Procedure: as §1, §3, §2

mTAAR5 = mTAAR5 (Mus musculus, UniProt Q5QD14); conditions: mTAAR5, ligand 500 μM, Fig. 1D
Procedure: as §1, §3, §2

T6 sequence (Q5QD05 whole entry): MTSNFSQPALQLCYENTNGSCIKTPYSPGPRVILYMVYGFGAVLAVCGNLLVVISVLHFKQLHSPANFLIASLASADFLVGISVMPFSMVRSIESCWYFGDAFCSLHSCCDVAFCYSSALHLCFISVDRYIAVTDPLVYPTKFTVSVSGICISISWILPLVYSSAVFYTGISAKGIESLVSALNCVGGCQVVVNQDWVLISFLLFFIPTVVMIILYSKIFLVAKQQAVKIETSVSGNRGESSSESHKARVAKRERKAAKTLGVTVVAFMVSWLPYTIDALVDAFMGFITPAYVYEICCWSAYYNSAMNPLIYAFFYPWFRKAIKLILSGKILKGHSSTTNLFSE
T2 sequence (Q5QD04 whole entry W298Y): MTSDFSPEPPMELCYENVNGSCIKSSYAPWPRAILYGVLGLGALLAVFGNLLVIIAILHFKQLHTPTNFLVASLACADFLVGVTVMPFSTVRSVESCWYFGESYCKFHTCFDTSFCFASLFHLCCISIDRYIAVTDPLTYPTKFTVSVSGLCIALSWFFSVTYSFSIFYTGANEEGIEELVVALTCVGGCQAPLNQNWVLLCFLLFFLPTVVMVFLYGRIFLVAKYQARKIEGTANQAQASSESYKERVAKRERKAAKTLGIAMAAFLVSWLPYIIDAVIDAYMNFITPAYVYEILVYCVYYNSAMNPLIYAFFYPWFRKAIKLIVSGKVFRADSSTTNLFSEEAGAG
Sequence of mTAAR5 (Q5QD14 whole entry): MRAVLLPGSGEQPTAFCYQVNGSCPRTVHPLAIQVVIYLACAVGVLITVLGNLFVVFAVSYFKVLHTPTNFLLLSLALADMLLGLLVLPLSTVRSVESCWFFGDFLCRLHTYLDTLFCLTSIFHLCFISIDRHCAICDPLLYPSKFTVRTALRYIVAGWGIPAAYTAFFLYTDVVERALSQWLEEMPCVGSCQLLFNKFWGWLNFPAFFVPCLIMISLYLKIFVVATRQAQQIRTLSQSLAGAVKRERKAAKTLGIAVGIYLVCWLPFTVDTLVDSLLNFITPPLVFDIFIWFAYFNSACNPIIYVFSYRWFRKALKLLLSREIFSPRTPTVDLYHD
Sequence of mTAAR7f (Q5QD08 whole entry): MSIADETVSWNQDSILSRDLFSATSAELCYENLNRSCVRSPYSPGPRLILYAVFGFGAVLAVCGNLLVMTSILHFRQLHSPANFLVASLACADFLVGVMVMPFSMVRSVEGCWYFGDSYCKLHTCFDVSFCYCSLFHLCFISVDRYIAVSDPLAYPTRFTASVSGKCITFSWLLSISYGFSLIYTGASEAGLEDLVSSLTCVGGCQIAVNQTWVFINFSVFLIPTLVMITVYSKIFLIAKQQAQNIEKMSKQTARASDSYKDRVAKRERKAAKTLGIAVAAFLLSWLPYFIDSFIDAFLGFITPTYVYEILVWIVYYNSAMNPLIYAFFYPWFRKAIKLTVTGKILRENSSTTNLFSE

| SMILES | EC50 (mTAAR9 W7.40A) [µM] | EC50 (mTAAR9 W7.40Y) [µM] | reporter activity (activation of TAAR9) (Rat TAAR9) | EC50 (mTAAR9 Y6.51W) [µM] | EC50 (WT mTAAR9) [µM] | reporter activity (mTAAR8c) | EC50 (mTAAR9 E7.36D) [µM] | EC50 (mTAAR9 W7.40F) [µM] | reporter activity (mTAAR7f) | reporter activity (mTAAR5) |
| --- | --- | --- | --- | --- | --- | --- | --- | --- | --- | --- |
| NCCCCNCCCN [spermidine] | 68 ± 48 | 2 ± 0.5 | maximum responses | > 1000 | 43 ± 7 | modest activity | 142 ± 43 | 9 ± 7 | – | – |
| CCN(CC)CC [triethylamine] | > 1000 | – | – | 355 ± 80 | 251 ± 82 | moderate activities | > 1000 | 36 ± 16 | robust responses | moderate activities |
